The values below come from US10689429B2, “Double-acylated GLP-1 compounds” (Novo Nordisk A/S, priority 2014, dated 2020).

*1 amine or outer side, *2 acyl side, *3 side chain or, on linkers, in order; H or OH if unused. Where a SMILES comes first, the peptide text is derived from it. Where no end group is shown, it is not given here. Side-chain parts run from the residue outwards. [ ]: non-standard residue; d: D form. The star is where a group is joined. Undecanoyl(11-OPh(4-COOH)) = O=C(O)c1ccc(OCCCCCCCCCCC(=O)*)cc1; γGlu = O=C(O)[C@H](CCC(=O)[*:2])N[*:1]; AEEA = NCCOCCOCC(=O)O; Aib = CC(C)(N)C(=O)O

Assay [1] concerns the target T1, human GLP-1 receptor (Homo sapiens, UniProt P43220).
T1 construct: expressed in transfected cells; host or cells: membranes from BHK cells, parent line BHKTS13, clone FCW467-12A
The assay can be described thus: In vitro potency, CRE luciferase reporter gene assay in BHK cells expressing the human GLP-1 receptor.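 Note: firefly luciferase luminescence read after 3 h incubation at 37 °C, compounds tested in an eight-point series from 0.01 pM to 100 nM.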 The assay is classed as cell-based. The note with it: average of duplicates.
Protocol: The in vitro potency is the measure of human GLP-1 receptor activation in a whole cell assay.
In vitro potency was determined by measuring the response of the human GLP-1 receptor in a reporter gene assay. The assay was performed in a stably transfected BHK cell line that expresses the human GLP-1 receptor and contains the DNA for the cAMP response element (CRE) coupled to a promoter and the gene for firefly luciferase (CRE luciferase). When the human GLP-1 receptor is activated it results in the production of cAMP, which in turn results in the luciferase protein being expressed. When assay incubation is completed the luciferase substrate (luciferin) is added and the enzyme converts luciferin to oxyluciferin to produce bioluminescence. The luminescence is measured as the readout for the assay.
An increase of the in vitro potency, EC50 value, in the presence of serum albumin would indicate an affinity to serum albumin and represents a method to predict a protracted pharmacokinetic profile of the test substance in animal models.
The cells were cultured at 5% CO2 in Cell Culture Medium. They were aliquoted and stored in liquid nitrogen. Before each assay an aliquot is taken up and washed twice in PBS before being suspended at the desired concentration in the assay specific buffer. For 96-well plates the suspension was made to give a final concentration of 5×10^3 cells/well.
Assay Medium consisted of DMEM w/o phenol red, 10 mM Hepes and 1× Glutamax. The 1% Assay Buffer consisted of 2% ovalbumin, 0.2% Pluronic F-68 and 2% HSA in Assay Medium. The 0% Assay Buffer consisted of 2% ovalbumin and 0.2% Pluronic F-68 in Assay Medium.
1) Cell stocks were thawed in a 37° C. water bath.
2) Cells were washed three times in PBS.
3) The cells were counted and adjusted to 5×10^3 cells/50 μl (1×10^5 cells/ml) in Assay Medium. A 50 μl aliquot of cells was transferred to each well in the assay plate.
4) Stocks of the test compounds and reference compounds were diluted to a concentration of 0.2 pM in 0% Assay Buffer for the 0% HSA CRE luciferase assay and 1% Assay Buffer for the 1% HSA CRE luciferase assay. […] Compounds were tested at the following final concentrations: 1×10^−7 M, 1×10^−8 M; 1×10^−9 M, 1×10^−10 M, 1×10^−11 M, 1×10^−12 M, 1×10^−13 M, and 1×10^−14 M. 6) The assay plate was incubated for 3 h in a 5% CO2 incubator at 37° C. […] 8) A 100 μl aliquot of steadylite plus reagent was added to each well of the assay plate (reagent was light sensitive). 9) Each assay plate was covered with aluminum foil to protect it from light and shaken for 30 min at room temperature. 10) Each assay plate was read in a Packard TopCount NXT instrument. Calculations and Results
The data from the TopCount instrument were transferred to GraphPad Prism software. The software performs a non-linear regression (log(agonist) vs response).
A minimum of two replicates was measured for each sample on separate assay plates. The reported values are averages of the duplicates. For some examples more than one assay was run and in this case the data reported are the averages of the averaged duplicates.

Assay [2] has as its target human GLP-1 receptor (human, UniProt P43220).
[3] abbreviates: EC50/pM (1% HSA), 1% HSA final assay concentration.

What is called EC50 is the concentration that produces a half-maximal response. Lower therefore signals greater potency.

T1 sequence (P43220 24-463): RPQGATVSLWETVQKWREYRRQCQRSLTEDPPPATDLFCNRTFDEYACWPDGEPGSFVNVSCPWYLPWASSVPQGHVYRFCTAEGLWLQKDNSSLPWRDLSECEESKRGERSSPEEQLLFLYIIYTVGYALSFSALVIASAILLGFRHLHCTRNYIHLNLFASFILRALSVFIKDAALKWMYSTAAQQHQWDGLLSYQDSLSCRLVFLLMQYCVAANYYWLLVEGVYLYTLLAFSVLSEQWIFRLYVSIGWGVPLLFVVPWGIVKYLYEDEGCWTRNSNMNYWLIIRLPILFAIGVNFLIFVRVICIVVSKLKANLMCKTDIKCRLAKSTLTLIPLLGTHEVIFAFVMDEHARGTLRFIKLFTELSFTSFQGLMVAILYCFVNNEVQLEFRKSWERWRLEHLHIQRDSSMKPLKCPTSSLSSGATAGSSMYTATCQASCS
Chain of human GLP-1 receptor (human, UniProt P43220) (P43220 24-463): as above

`CC[C@H](C)[C@H](NC(=O)[C@H](Cc1ccccc1)NC(=O)[C@H](CCC(=O)O)NC(=O)[C@H](CCCNC(=N)N)NC(=O)[C@H](C)NC(=O)[C@H](C)NC(=O)[C@H](CCC(N)=O)NC(=O)[C@H](CCC(=O)O)NC(=O)[C@H](CCC(=O)O)NC(=O)[C@H](CC(C)C)NC(=O)[C@H](Cc1ccc(O)cc1)NC(=O)[C@H](CO)NC(=O)[C@H](CO)NC(=O)[C@@H](NC(=O)[C@H](CC(=O)O)NC(=O)[C@H](CO)NC(=O)[C@@H](NC(=O)[C@H](Cc1ccccc1)NC(=O)[C@@H](NC(=O)CNC(=O)[C@H](CCC(=O)O)NC(=O)CNC(=O)[C@@H](N)Cc1c[nH]cn1)[C@@H](C)O)[C@@H](C)O)C(C)C)C(=O)N[C@@H](C)C(=O)N[C@@H](Cc1c[nH]c2ccccc12)C(=O)N[C@@H](CC(C)C)C(=O)N[C@H](C(=O)N[C@@H](CCCNC(=N)N)C(=O)NCC(=O)N[C@@H](CCCCNC(=O)COCCOCCNC(=O)COCCOCCNC(=O)CC[C@H](NC(=O)CCCCCCCCCCOc1ccc(C(=O)O)cc1)C(=O)O)C(=O)N[C@@H](CCCCNC(=O)COCCOCCNC(=O)COCCOCCNC(=O)CC[C@H](NC(=O)CCCCCCCCCCOc1ccc(C(=O)O)cc1)C(=O)O)C(=O)O)C(C)C` [Example 17, N{Epsilon-36}-[2-[2-[2-[[2-[2-[2-[[(4S)-4-carboxy-4-[11-(4-carboxyphenoxy)undecanoylamino]butanoyl]amino]ethoxy]ethoxy]acetyl]amino]ethoxy]ethoxy]acetyl], N{Epsilon-37}-[2-[2-[2-[[2-[2-[2-[[(4S)-4-carboxy-4-[11-(4-carboxyphenoxy)undecanoylamino]butanoyl]amino]ethoxy]ethoxy]acetyl]amino]ethoxy]ethoxy]acetyl]-[Gly8,Glu22,Arg26,Arg34,Lys36,Lys37]-GLP-1-(7-37)-peptide] (H-HGEGTFTSDVSSYLEEQAAREFIAWLVRGK([AEEA-AEEA-γGlu-Undecanoyl(11-OPh(4-COOH))])K([AEEA-AEEA-γGlu-Undecanoyl(11-OPh(4-COOH))])-OH; N-terminus and C-terminus assumed): the EC50 on human GLP-1 receptor [1] (EC50/pM (0% HSA), 0% HSA) is 14 pM; on human GLP-1 receptor [1] (setting [3]) it was 199 pM.

In the case of `CC[C@H](C)[C@H](NC(=O)[C@H](Cc1ccccc1)NC(=O)[C@H](CCC(=O)O)NC(=O)[C@H](CCCNC(=N)N)NC(=O)[C@H](C)NC(=O)[C@H](C)NC(=O)[C@H](CCC(N)=O)NC(=O)[C@H](CCC(=O)O)NC(=O)[C@H](CCC(=O)O)NC(=O)[C@H](CC(C)C)NC(=O)[C@H](Cc1ccc(O)cc1)NC(=O)[C@H](CO)NC(=O)[C@H](CO)NC(=O)[C@@H](NC(=O)[C@H](CC(=O)O)NC(=O)[C@H](CO)NC(=O)[C@@H](NC(=O)[C@H](Cc1ccccc1)NC(=O)[C@@H](NC(=O)CNC(=O)[C@H](CCC(=O)O)NC(=O)C(C)(C)NC(=O)[C@@H](N)Cc1c[nH]cn1)[C@@H](C)O)[C@@H](C)O)C(C)C)C(=O)N[C@@H](C)C(=O)N[C@@H](Cc1c[nH]c2ccccc12)C(=O)N[C@@H](CC(C)C)C(=O)N[C@H](C(=O)N[C@@H](CCCNC(=N)N)C(=O)NCC(=O)N[C@@H](CCCCNC(=O)COCCOCCNC(=O)COCCOCCNC(=O)CC[C@H](NC(=O)CC[C@H](NC(=O)CCCCCCCCCCOc1ccc(C(=O)O)cc1)C(=O)O)C(=O)O)C(=O)N[C@@H](CCCCNC(=O)COCCOCCNC(=O)COCCOCCNC(=O)CC[C@H](NC(=O)CC[C@H](NC(=O)CCCCCCCCCCOc1ccc(C(=O)O)cc1)C(=O)O)C(=O)O)C(=O)O)C(C)C` [Example 18], the EC50 on human GLP-1 receptor [1] (setting [3]) turned out to be 29 pM.

`CC[C@H](C)[C@H](NC(=O)[C@H](Cc1ccccc1)NC(=O)[C@H](CCC(=O)O)NC(=O)[C@H](CCCNC(=N)N)NC(=O)[C@H](C)NC(=O)[C@H](C)NC(=O)[C@H](CCC(N)=O)NC(=O)[C@H](CCC(=O)O)NC(=O)[C@H](CCC(=O)O)NC(=O)[C@H](CC(C)C)NC(=O)[C@H](Cc1ccc(O)cc1)NC(=O)[C@H](CO)NC(=O)[C@H](CO)NC(=O)[C@@H](NC(=O)[C@H](CC(=O)O)NC(=O)[C@H](CO)NC(=O)[C@@H](NC(=O)[C@H](Cc1ccccc1)NC(=O)[C@@H](NC(=O)CNC(=O)[C@H](CCC(=O)O)NC(=O)C(C)(C)NC(=O)[C@@H](N)Cc1c[nH]cn1)[C@@H](C)O)[C@@H](C)O)C(C)C)C(=O)N[C@@H](CCC(=O)O)C(=O)N[C@@H](Cc1c[nH]c2ccccc12)C(=O)N[C@@H](CC(C)C)C(=O)N[C@H](C(=O)N[C@@H](CCCNC(=N)N)C(=O)NCC(=O)N[C@@H](CCCCNC(=O)COCCOCCNC(=O)COCCOCCNC(=O)CC[C@H](NC(=O)CCCCCCCCCOc1cccc(C(=O)O)c1)C(=O)O)C(=O)N[C@@H](CCCCNC(=O)COCCOCCNC(=O)COCCOCCNC(=O)CC[C@H](NC(=O)CCCCCCCCCOc1cccc(C(=O)O)c1)C(=O)O)C(=O)O)C(C)C` [Example 27, N{Epsilon-36}-[2-[2-[2-[[2-[2-[2-[[(4S)-4-carboxy-4-[10-(3-carboxyphenoxy)decanoylamino]butanoyl]amino]ethoxy]ethoxy]acetyl]amino]ethoxy]ethoxy]acetyl], N{Epsilon-37}-[2-[2-[2-[[2-[2-[2-[[(4S)-4-carboxy-4-[10-(3-carboxyphenoxy)decanoylamino]butanoyl]amino]ethoxy]ethoxy]acetyl]amino]ethoxy]ethoxy]acetyl]-[Aib8,Glu22,Arg26,Glu30,Arg34,Lys36,Lys37]-GLP-1-(7-37)-peptide]: the EC50 on human GLP-1 receptor [1] (EC50/pM (0% HSA), 0% HSA) is 13 pM; at human GLP-1 receptor [1] (setting [3]), 105 pM.

Take `CC[C@H](C)[C@H](NC(=O)[C@H](Cc1ccccc1)NC(=O)[C@H](CCC(=O)O)NC(=O)[C@H](CCCNC(=N)N)NC(=O)[C@H](C)NC(=O)[C@H](C)NC(=O)[C@H](CCC(N)=O)NC(=O)[C@H](CCC(=O)O)NC(=O)[C@H](CCC(=O)O)NC(=O)[C@H](CC(C)C)NC(=O)[C@H](Cc1ccc(O)cc1)NC(=O)[C@H](CO)NC(=O)[C@H](CO)NC(=O)[C@@H](NC(=O)[C@H](CC(=O)O)NC(=O)[C@H](CO)NC(=O)[C@@H](NC(=O)[C@H](Cc1ccccc1)NC(=O)[C@@H](NC(=O)CNC(=O)[C@H](CCC(=O)O)NC(=O)C(C)(C)NC(=O)[C@@H](N)Cc1c[nH]cn1)[C@@H](C)O)[C@@H](C)O)C(C)C)C(=O)N[C@@H](C)C(=O)N[C@@H](Cc1c[nH]c2ccccc12)C(=O)N[C@@H](CC(C)C)C(=O)N[C@H](C(=O)N[C@@H](CCCNC(=N)N)C(=O)NCC(=O)N[C@@H](CCCCNC(=O)COCCOCCNC(=O)COCCOCCNC(=O)COCCOCCNC(=O)COCCOCCNC(=O)CC[C@H](NC(=O)CCCCCCCCCOc1cccc(C(=O)O)c1)C(=O)O)C(=O)N[C@@H](CCCCNC(=O)COCCOCCNC(=O)COCCOCCNC(=O)COCCOCCNC(=O)COCCOCCNC(=O)CC[C@H](NC(=O)CCCCCCCCCOc1cccc(C(=O)O)c1)C(=O)O)C(=O)O)C(C)C` [Example 22]: the EC50 turned out to be 1.8 pM on human GLP-1 receptor [1] (EC50/pM (0% HSA), 0% HSA) and 7.7 pM at human GLP-1 receptor [1] (setting [3]).

Regarding H[Aib]EGTFTSDVSSYLEEQAAREFIAWLVRGK([AEEA-AEEA-γGlu-γGlu-Undecanoyl(11-OPh(4-COOH))])K([AEEA-AEEA-γGlu-γGlu-Undecanoyl(11-OPh(4-COOH))]) [GLP-1 derivative of Example 18], in the assay with human GLP-1 receptor [2], the EC50/pM (0% HSA) was 0.8 pM and the EC50/pM (1% HSA) was 29 pM.
